Measured values: patent publication US20040203128A1, “Use of PP2A phosphatase modulators in the treatment of mental disorders” (priority 2002, published 2004)

Key:
[1] = tested on: GSK-3β; assay: In vitro phosphorylation assay of GST-2E11 with recombinant GSK-3β kinase and PKA; format: biochemical; details: LiCl at final concentration 0, 8.3, 25, 75 and 225 mM; signal negatively correlated with concentration
Procedure: Expression and purification of the GST-2E11 fusion protein were performed as described above. Beads with bound fusion protein corresponding to 1 ml of bacterial clear lysate were washed three times in NETN and one time with HMK buffer without DTT (20 mM Tris-HCl [pH 7.5], 120 mM NaCl, 12 mM MgCl2). Beads were resuspended in 240 μl of reaction mix (24 μl of 10×HMK Buffer with 20 mM DTT, 40 units of Protein Kinase A Catalytic Subunit [PKA from bovine heart, 250 units/vial, Sigma] in 40 mM DTT, 5 μl of 24 mM ATP and 207 μl of distilled water) and incubated for 30 min at room temperature. Beads were then washed three times in NETN buffer and one time in GSK-3β reaction buffer (20 mM Tris-HCl [pH 7.5], 10 mM MgCl2, 5 mM DTT) (New England Biolabs). Beads were then resuspended in 50 μl of reaction mix (5 μl of 10×GSK-3β reaction buffer, 1 μl of [^32P]γATP 10mCi/ml, 50 U of recombinant GSK-3β[New England Biolabs], and distilled water for a final volume of 50 μl) and incubated at room temperature for 30 min. After three washes in NETN buffer, phosphorylated proteins were boiled in 2× Sample Buffer (125 mM Tris-HCl [pH 6.8], 4% SDS, 20% glycerol, 1.4 M β-Mercapto ethanol), resolved by 10% SDS-PAGE, and visualized by autoradiography.
In this phosphorylation assay, non-radiolabeled polypeptides to be tested are incubated in the presence of GSK-3β, PKA and radioactive ATP. […]

[2] = tested on: PP2A phosphatase; assay: In vitro dephosphorylation of phosphorylated GST-2E11 with HTB-14 whole cell extracts; format: biochemical, Human; details: HTB-14 cell extracts plus 400 μM okadaic acid, 30 min, room temperature
Procedure: In vitro phosphorylated GST-2E11 fusion protein was incubated at room temperature for 30 min with 500 μg of whole cell extracts of Human glioblastoma, astrocytoma cell line (ATCC number: HTB-14) with or without 400 μM of the PP2A phosphatase inhibitor okadaic acid (Sigma). HTB-14 whole cell extracts were prepared as follow: cells were washed three times with ice-cold TBS buffer (10 mM Tris-HCl [pH 8.0], 120 mM NaCl) and lysed at 4° C. for 30 min in EBC buffer (50 mM Tris-HCl [pH 8.0], 120 mM NaCl, 0.5% Nonidet P-40). Then the lysate was centrifugated for 10 min at 13.000×g at 4° C. to pellet cell debris. Proteins present in the supernatant were quantified by the standard Bradford's method (Bio-Rad Protein Assay). The proteins were then resolved by 10% SDS-PAGE, and visualized by autoradiography.
The phosphorylated radiolabeled GST-2E11 proteins obtained from the previous assay were incubated in the presence of HTB-14 cell extracts containing the PP2A phosphatase to determine whether PP2A is capable of dephosphorylating GST-2E11 proteins. In this experiment, a protein that is dephosphorylated by PP2A is not radioactive after incubation in the presence of HTB-14 cell extracts any more. Thus dephosphorylation of the GST-2E11 protein is monitored by disappearance of the signal visualized by autoradiography. […]

[Cl-].[Li+] [LiCl]
intensity of the GST-2E11 band (phosphorylation) in the presence of LiCl [1]: decreased

C=C1[C@@H](O)[C@@H]2O[C@]3(CC[C@H](/C=C/[C@@H](C)[C@@H]4CC(C)=C[C@@]5(O[C@H](C[C@@](C)(O)C(=O)O)CC[C@H]5O)O4)O3)CC[C@H]2O[C@@H]1[C@@H](O)C[C@H](C)[C@H]1O[C@@]2(CCCCO2)CC[C@H]1C [okadaic acid]
intensity of the GST-2E11 band versus phosphorylated GST-2E11 reference (inhibition of dephosphorylation) [2]: only slightly weaker
